The subject of one experiment is Serratia marcescens. Description: In vitro M.I.C. of Nocardicin A, peptide and mixtures against Serratia marcescens. In kind it is cell-based.
For a further experiment, the system named is Proteus vulgaris. Description: In vitro M.I.C. of Nocardicin A, peptide and mixtures against Proteus vulgaris. In kind it is cell-based.
In experiment [1] the test system is Pseudomonas aeruginosa. Put plainly: In vitro M.I.C. of Nocardicin A, peptide and their mixtures against Pseudomonas aeruginosa strains. Type of experiment: cell-based.
The test system of a further experiment is P. mirabilis. Description: In vitro M.I.C. of Nocardicin A, peptide and mixtures against Proteus species. Type of experiment: cell-based.
Another experiment deals with Ps. aeruginosa. Put plainly: In vivo activity in Pseudomonas septicaemia of mice. The arrangement: species or system Mäusen. Conditions: sc, 5 h. The source says: Die in vivo Aktivitäten der erfindungsgemässen Kombinationen wurden mittels Pseudomonas-Septikämien an Mäusen getestet, wobei die Verabreichung eine Stunde, 3 Stunden -und 5 Stunden nach intraperitonealer Infektion erfolgte. Die Ergebnisse, die mit (1R)-1-(L-Norvalylamino)-ethylphosphonsäure und Nocardicin A erreicht wurden, sind in der folgenden Tabelle VI zusammengefasst.

A further experiment relates to P. morganii. Description: In vitro M.I.C. of Nocardicin A, peptide and mixtures against Proteus species. In kind it is cell-based. The conditions noted are these: Morganella morganii; P. morganii Stamm 501041; substance alone.
For the next experiment, the system named is P. rettgeri. Described as above. The conditions noted are these: Providencia rettgeri; P. rettgeri Stamm 503010; substance alone. In kind it is cell-based.
Experiment [2] has as its system Pseudomonas aeruginosa. Put plainly: Microtiter checkerboard method, M.I.C. after 18 h incubation. In kind it is cell-based. The conditions noted are these: for MIC: Pseudomonas aeruginosa. How it is done:
Die in vitro Aktivität der erfindungsgemässen Kombinationen kann auch nach der Mikrotiter-Schachbrett-Methode gezeigt werden. Bei dieser Methode werden Filter-sterilisierte Grundlösungen von Verbindungen I und einem Nocardicin-Antibiotikum hergestellt, die 4,8mal so konzentriert sind wie die zu testenden Lösungen. Aliquote Teile des Kulturmediums (50 ul)wurden in alle 12 (1-12) x 8 (A-H) Löcher der Mikrotiter-Platte gegeben, mit Ausnahme des Loches 12H. Jeweils 50 µl der Peptid-Lösung wurden dann in jedes Loch der zwölften Reihe gegeben und 100 µl in das Loch 12H. Die peptidhaltigen Lösungen wurden dann innerhalb der Reihen A-H dadurch verdünnt, dass man jeweils 50 µl aus der Reihe 12 in die Reihe 11 übertrug, gut vermischte, und wieder jeweils 50 µl in die Reihe 10 übertrug und dieses Prozedere bis zur Reihe 2 wiederholte, so dass die Reihe 1 ausgelassen wurde. Dann wurden je 50 µl einer Lösung eines Nocardicin-Antibiotikums in jedes Loch der Reihe H gegeben und ebenfalls in der vorstehend beschriebenen Weise verdünnt innerhalb der Reihen 1-12, wobei das letzte Loch in jeder Reihe wiederum ausgelassen wurde. Nachdem die Volumina überall durch Zusatz von 50 ul Nährflüssigkeit auf 100 µl gebracht wurden, wurden jeweils 20 µl einer 1/1000 Verdünnung einer über Nacht angesetzten Kultur eines Testorganismus zugesetzt. Durch Schütteln wurde für eine gleichmässige Verteilung gesorgt, woraufhin die Platten mit Klebstreifen verschlossen wurden. Die minimalen Hemmkonzentrationen wurden als diejenigen minimalen Konzentrationen bestimmt, die nach 18-stündiger Inkubation der Kulturen eine sichtbare Trübung verhinderten. Die Ergebnisse mit (1R)-1-(L-Norvalylamino)-ethylphosphonsäure und Nocardicin D sind in der Tabelle V zusammengestellt.

Where [3] appears, read: Tabelle IV, S. marcescens (strain not named), substance alone.
[4] abbreviates: Tabelle IV, P. vulgaris (strain not named), substance alone.
The mark [5] stands for this setting: Tabelle IV, Ps. aeruginosa (strain not named), substance alone.
[6] abbreviates: P. mirabilis Stamm 502010, substance alone.
Setting [7] is: P. mirabilis Stamm 502012, substance alone.
Setting [8] is: P. mirabilis Stamm 502015, substance alone.
The mark [9] stands for this setting: P. mirabilis Stamm 502038, substance alone.
The mark [10] stands for this setting: ATCC14756, S. marcescens Stamm ATCC 14756, substance alone.
The mark [11] stands for this setting: S. marcescens Stamm 542007, substance alone.
The mark [12] stands for this setting: S. marcescens Stamm 542010, substance alone.
Setting [13] is: S. marcescens Stamm 542012, substance alone.
The mark [14] stands for this setting: S. marcescens Stamm 542017, substance alone.
The mark [15] stands for this setting: P. vulgaris Stamm 505030, substance alone.
Where [16] appears, read: P. vulgaris Stamm 505031, substance alone.
Setting [17] is: NCTC2099, Stamm NCTC 2099, substance alone.
Setting [18] is: NCTC2100, Stamm NCTC 2100, substance alone.
Where [19] appears, read: Stamm NC1B 8295, substance alone.

≈ marks a conversion by molar mass, not a printed value. Where two headings read alike, the source gives them in different places.

As usually defined, the MIC is the lowest concentration found to suppress growth. Take `CCC[C@H](N)C(=O)NCP(=O)(O)O` [1-(L-Norvalylamino)-methylphosphonsäure]: the MIC was 4 µg/mL (≈ 19 µM) in the experiment with Serratia marcescens (setting [3]), 45.2 µg/mL (≈ 215 µM) in the experiment on Proteus vulgaris (setting [4]) and over 128 µg/mL in the experiment with Pseudomonas aeruginosa [1] (setting [5]).
As for `CCC[C@H](N)C(=O)N[C@@H](C)P(=O)(O)O` [(1R)-1-(L-Norvalylamino)-ethylphosphonsäure], the MIC with P. mirabilis (setting [6]) came out at 22.6 µg/mL (≈ 101 µM); in the experiment on P. mirabilis (setting [7]) it was 22.6 µg/mL (≈ 101 µM); with P. mirabilis (setting [8]), 22.6 µg/mL (≈ 101 µM); in the experiment on P. mirabilis (setting [9]), 22.6 µg/mL (≈ 101 µM); with P. morganii it was 64 µg/mL (≈ 285 µM); with Serratia marcescens (setting [10]), 1 µg/mL (≈ 4.46 µM). For the same molecule, the MIC in the experiment with Serratia marcescens (setting [11]) was 1 µg/mL (≈ 4.46 µM); with Serratia marcescens (setting [12]), 1 µg/mL (≈ 4.46 µM); in the experiment with Serratia marcescens (setting [13]), 1 µg/mL (≈ 4.46 µM); in the experiment on Serratia marcescens (setting [14]) it was 1 µg/mL (≈ 4.46 µM); in the experiment with Proteus vulgaris (setting [15]), 5.7 µg/mL (≈ 25.4 µM); with Proteus vulgaris (setting [16]), 8 µg/mL (≈ 35.7 µM). In addition, the MIC with P. rettgeri is 4 µg/mL (≈ 17.8 µM); with Pseudomonas aeruginosa [2] (Stamm 511019, substance alone), over 256 µg/mL; in the experiment on Pseudomonas aeruginosa [2] (Stamm 511027, substance alone) it was 64 µg/mL; with Pseudomonas aeruginosa [2] (Stamm 511030, substance alone) it was 256 µg/mL; in the experiment on Pseudomonas aeruginosa [1] (setting [17]) it was 256 µg/mL (≈ 1140 µM); with Pseudomonas aeruginosa [1] (setting [18]) it was over 256 µg/mL. The MIC is over 256 µg/mL in the experiment on Pseudomonas aeruginosa [1] (Stamm 511004, substance alone); 4 µg/mL (≈ 17.8 µM) in the experiment on Pseudomonas aeruginosa [1] (Stamm 511005, substance alone); over 256 µg/mL in the experiment with Pseudomonas aeruginosa [1] (Stamm 511007, substance alone); over 256 µg/mL with Pseudomonas aeruginosa [1] (Stamm 511012, substance alone); 128 µg/mL (≈ 571 µM) with Pseudomonas aeruginosa [1] (Stamm 511015, substance alone); 32 µg/mL (≈ 143 µM) in the experiment with Pseudomonas aeruginosa [1] (Stamm 511016, substance alone). In addition, the MIC in the experiment on Pseudomonas aeruginosa [1] (Stamm 511019, substance alone) is over 256 µg/mL; in the experiment on Pseudomonas aeruginosa [1] (Stamm 511026, substance alone) it was over 256 µg/mL; in the experiment on Pseudomonas aeruginosa [1] (Stamm 511027, substance alone), 45 µg/mL (≈ 201 µM); in the experiment with Pseudomonas aeruginosa [1] (Stamm 511028, substance alone), over 256 µg/mL; with Pseudomonas aeruginosa [1] (Stamm 511029, substance alone), over 256 µg/mL; in the experiment with Pseudomonas aeruginosa [1] (Stamm 511030, substance alone), 256 µg/mL (≈ 1140 µM). Moreover, the MIC was found to be 256 µg/mL (≈ 1140 µM) in the experiment on Pseudomonas aeruginosa [1] (Stamm 511032, substance alone); 256 µg/mL (≈ 1140 µM) with Pseudomonas aeruginosa [1] (Stamm 511033, substance alone); 256 µg/mL (≈ 1140 µM) in the experiment on Pseudomonas aeruginosa [1] (Stamm 511036, substance alone); 256 µg/mL (≈ 1140 µM) in the experiment with Pseudomonas aeruginosa [1] (Stamm 511038, substance alone); 256 µg/mL (≈ 1140 µM) in the experiment on Pseudomonas aeruginosa [1] (Stamm 511041, substance alone); 64 µg/mL (≈ 285 µM) in the experiment on Pseudomonas aeruginosa [1] (setting [19]). Further, the ED50 in the experiment with Ps. aeruginosa (read-out: CD50, Ps. aeruginosa 143724, s.c. 3 x (1, 3, 5 h after i.p. infection), substance alone) is over 200 mg/kg; with Ps. aeruginosa (read-out: CD50, Ps. aeruginosa 143811, s.c. 3 x (1, 3, 5 h after i.p. infection), substance alone) it was over 200 mg/kg; in the experiment with Ps. aeruginosa (read-out: CD50, Ps. aeruginosa BA, s.c. 3 x (1, 3, 5 h after i.p. infection), substance alone) it was over 200 mg/kg; in the experiment on Ps. aeruginosa (read-out: CD50, Ps. aeruginosa M 7801, s.c. 3 x (1, 3, 5 h after i.p. infection), substance alone) it was 135 mg/kg.
Turning to `N[C@H](CCOc1ccc(/C(=N/O)C(=O)N[C@H]2CN([C@@H](C(=O)O)c3ccc(O)cc3)C2=O)cc1)C(=O)O` [Nocardicin A], the MIC in the experiment with P. mirabilis (setting [6]) is 8 µg/mL (≈ 16 µM); in the experiment with P. mirabilis (setting [7]), 8 µg/mL (≈ 16 µM); in the experiment on P. mirabilis (setting [8]), 4 µg/mL (≈ 7.99 µM); in the experiment with P. mirabilis (setting [9]) it was 32 µg/mL (≈ 63.9 µM); in the experiment on P. morganii it was 8 µg/mL (≈ 16 µM); with Serratia marcescens (setting [10]), 8 µg/mL (≈ 16 µM). Further, the MIC with Serratia marcescens (setting [11]) is 11.3 µg/mL (≈ 22.6 µM); in the experiment on Serratia marcescens (setting [12]), 11.3 µg/mL (≈ 22.6 µM); with Serratia marcescens (setting [13]) it was 8 µg/mL (≈ 16 µM); in the experiment with Serratia marcescens (setting [14]), 16 µg/mL (≈ 32 µM); in the experiment on Serratia marcescens (setting [3]) it was 16 µg/mL (≈ 32 µM); with Proteus vulgaris (setting [15]) it was 4 µg/mL (≈ 7.99 µM). In addition, the MIC in the experiment on Proteus vulgaris (setting [16]) was 32 µg/mL (≈ 63.9 µM); with Proteus vulgaris (setting [4]), 64 µg/mL (≈ 128 µM); in the experiment on P. rettgeri it was 8 µg/mL (≈ 16 µM); in the experiment with Pseudomonas aeruginosa [1] (setting [17]), 16 µg/mL (≈ 32 µM); in the experiment with Pseudomonas aeruginosa [1] (setting [18]), 32 µg/mL (≈ 63.9 µM); in the experiment on Pseudomonas aeruginosa [1] (Stamm 511004, substance alone), 32 µg/mL (≈ 63.9 µM). Moreover, the MIC was 4 µg/mL (≈ 7.99 µM) in the experiment with Pseudomonas aeruginosa [1] (Stamm 511005, substance alone); 16 µg/mL (≈ 32 µM) in the experiment on Pseudomonas aeruginosa [1] (Stamm 511007, substance alone); 32 µg/mL (≈ 63.9 µM) with Pseudomonas aeruginosa [1] (Stamm 511012, substance alone); 16 µg/mL (≈ 32 µM) with Pseudomonas aeruginosa [1] (Stamm 511015, substance alone); 64 µg/mL (≈ 128 µM) in the experiment on Pseudomonas aeruginosa [1] (Stamm 511016, substance alone); 64 µg/mL (≈ 128 µM) with Pseudomonas aeruginosa [1] (Stamm 511019, substance alone). Further, the MIC in the experiment on Pseudomonas aeruginosa [1] (Stamm 511026, substance alone) worked out at 181 µg/mL (≈ 362 µM); in the experiment with Pseudomonas aeruginosa [1] (Stamm 511027, substance alone), 8 µg/mL (≈ 16 µM); in the experiment with Pseudomonas aeruginosa [1] (Stamm 511028, substance alone), 16 µg/mL (≈ 32 µM); in the experiment with Pseudomonas aeruginosa [1] (Stamm 511029, substance alone), 256 µg/mL (≈ 512 µM); in the experiment on Pseudomonas aeruginosa [1] (Stamm 511030, substance alone), 16 µg/mL (≈ 32 µM); in the experiment on Pseudomonas aeruginosa [1] (Stamm 511032, substance alone), 32 µg/mL (≈ 63.9 µM). Besides, the MIC is 32 µg/mL (≈ 63.9 µM) with Pseudomonas aeruginosa [1] (Stamm 511033, substance alone); 16 µg/mL (≈ 32 µM) in the experiment with Pseudomonas aeruginosa [1] (Stamm 511036, substance alone); 256 µg/mL (≈ 512 µM) in the experiment with Pseudomonas aeruginosa [1] (Stamm 511038, substance alone); 32 µg/mL (≈ 63.9 µM) in the experiment on Pseudomonas aeruginosa [1] (Stamm 511041, substance alone); over 256 µg/mL in the experiment with Pseudomonas aeruginosa [1] (setting [19]); 8 µg/mL (≈ 16 µM) in the experiment with Pseudomonas aeruginosa [1] (setting [5]). Moreover, the ED50 is over 50 mg/kg with Ps. aeruginosa (Ps. aeruginosa 143724, s.c. 3 x (1, 3, 5 h after i.p. infection), substance alone, read-out: CD50 (the source's name)); over 50 mg/kg in the experiment on Ps. aeruginosa (Ps. aeruginosa 143811, s.c. 3 x (1, 3, 5 h after i.p. infection), substance alone, read-out: CD50 (the source's name)); 43 mg/kg in the experiment on Ps. aeruginosa (Ps. aeruginosa BA, s.c. 3 x (1, 3, 5 h after i.p. infection), substance alone, read-out: CD50 (the source's name)); over 50 mg/kg with Ps. aeruginosa (Ps. aeruginosa M 7801, s.c. 3 x (1, 3, 5 h after i.p. infection), substance alone, read-out: CD50 (the source's name)).
Turning to `N[C@H](CCOc1ccc(C(=O)C(=O)N[C@H]2CN([C@@H](C(=O)O)c3ccc(O)cc3)C2=O)cc1)C(=O)O` [Nocardicin D], the M.I.C. in the experiment on Pseudomonas aeruginosa [2] (Stamm 511019, substance alone) is over 512 µg/mL; in the experiment on Pseudomonas aeruginosa [2] (Stamm 511027, substance alone), 512 µg/mL; with Pseudomonas aeruginosa [2] (Stamm 511030, substance alone), 128 µg/mL.

For the origin of these results see patent publication EP0026410A1, “Combinations of active ingredients, their preparation and use, as well as pharmaceutical preparations” (F. HOFFMANN-LA ROCHE & CO. Aktiengesellschaft, priority 1979, dated 1981).
